Data set [1] relates to Hepatotoxicity. Put plainly: Literature-mined compound from Fourches et al multi-species drug-induced liver injury (DILI) dataset, effect in non-rodents.
Data set [2] has as its system Hepatotoxicity. Put plainly: Literature-mined compound from Fourches et al multi-species drug-induced liver injury (DILI) dataset, effect in humans. To be noted: human.
In data set [3] the test system is Hepatotoxicity. Nature of the data set: Literature-mined compound from Fourches et al multi-species drug-induced liver injury (DILI) dataset, effect in rodents. The note with it: rodentia.

As for `C[N+](C)(C)CCOC(N)=O.[Cl-]` [CARBACHOL], the figures for the Hepatotoxicity entry in the data set on Hepatotoxicity [1], with Hepatotoxicity [2] and in the data set on Hepatotoxicity [3] were “no drug-induced liver injury reported”, “no drug-induced liver injury reported” and “drug-induced liver injury reported”, respectively.
As to `NC(=O)N1c2ccccc2C=Cc2ccccc21` [CARBAMAZEPINE], the Hepatotoxicity entry is reported as “no drug-induced liver injury reported” in the data set with Hepatotoxicity [1], “drug-induced liver injury reported” with Hepatotoxicity [2] and “drug-induced liver injury reported” in the data set with Hepatotoxicity [3].
For `CNC(=O)Oc1cccc2ccccc12` [CARBARIL], the Hepatotoxicity result in the data set with Hepatotoxicity [1] is listed as “no drug-induced liver injury reported”; with Hepatotoxicity [2], “no drug-induced liver injury reported”; in the data set with Hepatotoxicity [3], “drug-induced liver injury reported”.
For `CC1(C)S[C@@H]2[C@H](NC(=O)C(C(=O)[O-])c3ccccc3)C(=O)N2[C@H]1C(=O)[O-].[Na+].[Na+]` (stereo partly specified) [CARBENICILLIN DISODIUM], the Hepatotoxicity result in the data set on Hepatotoxicity [1] is given as “no drug-induced liver injury reported”; in the data set on Hepatotoxicity [2] it was “drug-induced liver injury reported”; in the data set with Hepatotoxicity [3], “no drug-induced liver injury reported”.
Regarding `CC1(C)[C@@H](OC(=O)CCC(=O)O)CC[C@]2(C)[C@H]3C(=O)C=C4[C@@H]5C[C@@](C)(C(=O)O)CC[C@]5(C)CC[C@@]4(C)[C@]3(C)CC[C@@H]12` [CARBENOXOLONE], the figures for the Hepatotoxicity result in the data set with Hepatotoxicity [1], in the data set with Hepatotoxicity [2] and with Hepatotoxicity [3] were “no drug-induced liver injury reported”, “no drug-induced liver injury reported” and “drug-induced liver injury reported”, respectively.
As for `CCOC(=O)n1ccn(C)c1=S` [CARBIMAZOLE], the Hepatotoxicity entry with Hepatotoxicity [1] is reported as “no drug-induced liver injury reported”; in the data set on Hepatotoxicity [2] it was “drug-induced liver injury reported”; in the data set on Hepatotoxicity [3], “no drug-induced liver injury reported”.
With `CCCCNC(=O)NS(=O)(=O)c1ccc(N)cc1` [CARBUTAMIDE], the Hepatotoxicity result in the data set on Hepatotoxicity [1] is “no drug-induced liver injury reported”; with Hepatotoxicity [2], “no drug-induced liver injury reported”; in the data set with Hepatotoxicity [3] it was “drug-induced liver injury reported”.
For the compound `CC(C)c1ccc(C(=O)NC(=N)N)cc1S(C)(=O)=O` [CARIPORIDE], the Hepatotoxicity result in the data set with Hepatotoxicity [1] was “no drug-induced liver injury reported”; with Hepatotoxicity [2], “no drug-induced liver injury reported”; with Hepatotoxicity [3], “drug-induced liver injury reported”.
For the compound `CCCC(C)(COC(N)=O)COC(=O)NC(C)C` (stereo unspecified) [CARISOPRODOL], the figures for the Hepatotoxicity result in the data set on Hepatotoxicity [1], with Hepatotoxicity [2] and with Hepatotoxicity [3] were “no drug-induced liver injury reported”, “no drug-induced liver injury reported” and “drug-induced liver injury reported”, respectively.
In the case of `O=NN(CCCl)C(=O)NCCCl` [CARMUSTINE], the Hepatotoxicity entry in the data set on Hepatotoxicity [1] was “no drug-induced liver injury reported”; in the data set on Hepatotoxicity [2], “drug-induced liver injury reported”; in the data set with Hepatotoxicity [3], “drug-induced liver injury reported”.
For `C[N+](C)(C)CC(O)CC(=O)[O-]` (stereo unspecified) [CARNITINE], the Hepatotoxicity result with Hepatotoxicity [1], with Hepatotoxicity [2] and in the data set with Hepatotoxicity [3] was “drug-induced liver injury reported” in each case.
With `CC(C(=O)O)c1ccc2c(c1)[nH]c1ccc(Cl)cc12` (stereo unspecified) [CARPROFEN], the Hepatotoxicity result with Hepatotoxicity [1] is given as “drug-induced liver injury reported”; in the data set with Hepatotoxicity [2], “no drug-induced liver injury reported”; in the data set on Hepatotoxicity [3] it was “no drug-induced liver injury reported”.
Take `COc1ccccc1OCCNCC(O)COc1cccc2[nH]c3ccccc3c12` (stereo unspecified) [CARVEDILOL]: the results for the Hepatotoxicity entry with Hepatotoxicity [1], with Hepatotoxicity [2] and with Hepatotoxicity [3] were “no drug-induced liver injury reported”, “drug-induced liver injury reported” and “drug-induced liver injury reported”, respectively.
Consider `Oc1cc(O)c2c(c1)O[C@H](c1ccc(O)c(O)c1)[C@@H](O)C2` [CATECHIN], for which the Hepatotoxicity result in the data set with Hepatotoxicity [1], in the data set on Hepatotoxicity [2] and in the data set with Hepatotoxicity [3] was “drug-induced liver injury reported” throughout.
In the case of `N[C@@H](C(=O)N[C@@H]1C(=O)N2C(C(=O)O)=C(Cl)CS[C@H]12)c1ccccc1` [CEFACLOR ANHYDROUS], the values for the Hepatotoxicity result in the data set on Hepatotoxicity [1], in the data set on Hepatotoxicity [2] and with Hepatotoxicity [3] were “no drug-induced liver injury reported”, “drug-induced liver injury reported” and “no drug-induced liver injury reported”, respectively.
`CC1=C(C(=O)O)N2C(=O)[C@@H](NC(=O)[C@H](N)c3ccc(O)cc3)[C@H]2SC1` [CEFADROXIL]: the Hepatotoxicity result is listed as “no drug-induced liver injury reported” in the data set on Hepatotoxicity [1], “drug-induced liver injury reported” in the data set with Hepatotoxicity [2] and “no drug-induced liver injury reported” with Hepatotoxicity [3].
`Cc1nnc(SCC2=C(C(=O)O)N3C(=O)[C@@H](NC(=O)Cn4cnnn4)[C@H]3SC2)s1` [CEFAZOLIN]: the Hepatotoxicity entry is listed as “no drug-induced liver injury reported” in the data set with Hepatotoxicity [1], “drug-induced liver injury reported” in the data set on Hepatotoxicity [2] and “drug-induced liver injury reported” in the data set on Hepatotoxicity [3].
As for `C=CC1=C(C(=O)O)N2C(=O)[C@@H](NC(=O)/C(=N\OCC(=O)O)c3csc(N)n3)[C@H]2SC1` [CEFIXIME], the values for the Hepatotoxicity result in the data set with Hepatotoxicity [1], in the data set on Hepatotoxicity [2] and in the data set with Hepatotoxicity [3] were “no drug-induced liver injury reported”, “drug-induced liver injury reported” and “no drug-induced liver injury reported”, respectively.
Regarding `CCN1CCN(C(=O)N[C@@H](C(=O)N[C@@H]2C(=O)N3C(C(=O)O)=C(CSc4nnnn4C)CS[C@H]23)c2ccc(O)cc2)C(=O)C1=O` [CEFOPERAZONE], the Hepatotoxicity result in the data set with Hepatotoxicity [1] is given as “no drug-induced liver injury reported”; in the data set with Hepatotoxicity [2] it was “drug-induced liver injury reported”; in the data set with Hepatotoxicity [3], “drug-induced liver injury reported”.
In the case of `CO/N=C(\C(=O)N[C@@H]1C(=O)N2C(C(=O)O)=C(COC(C)=O)CS[C@H]12)c1csc(N)n1` [CEFOTAXIME], the Hepatotoxicity result is recorded as “no drug-induced liver injury reported” with Hepatotoxicity [1], “drug-induced liver injury reported” with Hepatotoxicity [2] and “no drug-induced liver injury reported” with Hepatotoxicity [3].
`CO[C@@]1(NC(=O)C2SC(=C(C(N)=O)C(=O)O)S2)C(=O)N2C(C(=O)O)=C(CSc3nnnn3C)CS[C@@H]21` (stereo partly specified) [CEFOTETAN]: the results for the Hepatotoxicity entry in the data set with Hepatotoxicity [1], in the data set with Hepatotoxicity [2] and in the data set on Hepatotoxicity [3] were “no drug-induced liver injury reported”, “drug-induced liver injury reported” and “no drug-induced liver injury reported”, respectively.
Take `CC=CC1=C(C(=O)O)N2C(=O)[C@@H](NC(=O)[C@H](N)c3ccc(O)cc3)[C@H]2SC1` [CEFPROZIL]: the values for the Hepatotoxicity entry in the data set with Hepatotoxicity [1], in the data set on Hepatotoxicity [2] and with Hepatotoxicity [3] were “no drug-induced liver injury reported”, “drug-induced liver injury reported” and “no drug-induced liver injury reported”, respectively.
In the case of `CO/N=C(\C(=O)N[C@@H]1C(=O)N2C(C(=O)O)=C(CSc3nc(=O)c(=O)[nH]n3C)CS[C@H]12)c1csc(N)n1` [CEFTRIAXONE], the Hepatotoxicity result in the data set with Hepatotoxicity [1], in the data set with Hepatotoxicity [2] and with Hepatotoxicity [3] was “drug-induced liver injury reported” in each case.
In the case of `Cc1ccc(-c2cc(C(F)(F)F)nn2-c2ccc(S(N)(=O)=O)cc2)cc1` [CELECOXIB], the Hepatotoxicity result in the data set with Hepatotoxicity [1] (Liver) was “no drug-induced liver injury reported”; in the data set on Hepatotoxicity [2] (Liver) it was “drug-induced liver injury reported”; in the data set on Hepatotoxicity [3] (Liver), “drug-induced liver injury reported”.
For `O=C(Cc1cccs1)N[C@@H]1C(=O)N2C(C(=O)[O-])=C(C[n+]3ccccc3)CS[C@H]12` [CEPHALORIDINE], the Hepatotoxicity result with Hepatotoxicity [1] is “no drug-induced liver injury reported”; with Hepatotoxicity [2], “drug-induced liver injury reported”; with Hepatotoxicity [3], “no drug-induced liver injury reported”.
As to `CC(=O)OCC1=C(C(=O)O)N2C(=O)[C@@H](NC(=O)Cc3cccs3)[C@H]2SC1` [CEPHALOTHIN], the Hepatotoxicity result with Hepatotoxicity [1] is given as “no drug-induced liver injury reported”; in the data set with Hepatotoxicity [2] it was “drug-induced liver injury reported”; in the data set on Hepatotoxicity [3], “no drug-induced liver injury reported”.
In the case of `COCc1c(C(C)C)nc(C(C)C)c(/C=C/[C@@H](O)C[C@@H](O)CC(=O)[O-])c1-c1ccc(F)cc1.[Na+]` [CERIVASTATIN SODIUM], the values for the Hepatotoxicity entry with Hepatotoxicity [1], in the data set on Hepatotoxicity [2] and in the data set with Hepatotoxicity [3] were “drug-induced liver injury reported”, “no drug-induced liver injury reported” and “drug-induced liver injury reported”, respectively.
For the compound `COCc1c(C(C)C)nc(C(C)C)c(/C=C/[C@@H](O)C[C@@H](O)CC(=O)O)c1-c1ccc(F)cc1` [CERIVASTATIN], the Hepatotoxicity entry with Hepatotoxicity [1], in the data set with Hepatotoxicity [2] and in the data set on Hepatotoxicity [3] was “drug-induced liver injury reported” throughout.
With `O=C(O)COCCN1CCN(C(c2ccccc2)c2ccc(Cl)cc2)CC1` (stereo unspecified) [CETIRIZINE], the Hepatotoxicity result is reported as “no drug-induced liver injury reported” in the data set with Hepatotoxicity [1] (Liver), “drug-induced liver injury reported” with Hepatotoxicity [2] (Liver) and “no drug-induced liver injury reported” in the data set on Hepatotoxicity [3] (Liver).
In the case of `C[C@H](CCC(=O)O)[C@H]1CC[C@H]2[C@@H]3[C@H](O)C[C@@H]4C[C@H](O)CC[C@]4(C)[C@H]3CC[C@]12C` [CHENODIOL], the Hepatotoxicity entry in the data set with Hepatotoxicity [1], in the data set on Hepatotoxicity [2] and in the data set on Hepatotoxicity [3] was “drug-induced liver injury reported” throughout.
Regarding `OC(O)C(Cl)(Cl)Cl` [CHLORAL HYDRATE], the Hepatotoxicity result in the data set with Hepatotoxicity [1] (Liver) is “no drug-induced liver injury reported”; in the data set on Hepatotoxicity [2] (Liver), “drug-induced liver injury reported”; in the data set with Hepatotoxicity [3] (Liver) it was “drug-induced liver injury reported”.
`O=C(O)CCCc1ccc(N(CCCl)CCCl)cc1` [CHLORAMBUCIL]: the Hepatotoxicity result in the data set on Hepatotoxicity [1] was “no drug-induced liver injury reported”; in the data set with Hepatotoxicity [2], “drug-induced liver injury reported”; with Hepatotoxicity [3], “drug-induced liver injury reported”.

For the origin of these results see ChEMBL document CHEMBL1697731, “Cheminformatics analysis of assertions mined from literature that describe drug-induced liver injury in different species” (Chem Res Toxicol, 2010).
